The values below come from patent US20170233413A1, “SUBSTITUTED ANNULATED PYRIMIDINES AND USE THEREOF” (Bayer Pharma Aktiengesellschaft, priority 2014, published 2017).

Structures are written as SMILES.

For experiment [1], the target named is T1, recombinant guanylate cyclase reporter cell line (Rattus norvegicus, UniProt P19686+P20595).
T1 construct: expressed in transfected cells
T1 sequence (P19686 1-690): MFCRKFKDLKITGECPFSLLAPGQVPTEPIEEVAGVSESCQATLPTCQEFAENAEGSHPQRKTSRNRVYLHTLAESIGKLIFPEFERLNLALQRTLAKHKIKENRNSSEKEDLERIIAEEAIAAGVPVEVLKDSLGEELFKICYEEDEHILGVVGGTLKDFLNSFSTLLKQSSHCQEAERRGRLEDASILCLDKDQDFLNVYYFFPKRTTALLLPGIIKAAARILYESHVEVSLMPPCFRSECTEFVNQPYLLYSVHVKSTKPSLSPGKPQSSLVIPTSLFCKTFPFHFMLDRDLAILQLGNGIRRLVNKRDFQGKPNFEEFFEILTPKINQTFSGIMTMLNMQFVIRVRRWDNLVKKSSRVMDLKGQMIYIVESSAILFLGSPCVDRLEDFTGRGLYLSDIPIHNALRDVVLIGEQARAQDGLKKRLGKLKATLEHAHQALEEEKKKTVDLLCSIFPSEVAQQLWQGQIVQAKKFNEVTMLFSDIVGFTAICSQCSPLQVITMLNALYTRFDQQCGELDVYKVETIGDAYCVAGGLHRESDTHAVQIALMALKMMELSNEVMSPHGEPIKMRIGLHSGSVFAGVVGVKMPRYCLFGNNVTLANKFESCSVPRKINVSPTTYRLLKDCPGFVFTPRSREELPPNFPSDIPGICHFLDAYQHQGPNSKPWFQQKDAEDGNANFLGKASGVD
T1 sequence (P20595 1-619): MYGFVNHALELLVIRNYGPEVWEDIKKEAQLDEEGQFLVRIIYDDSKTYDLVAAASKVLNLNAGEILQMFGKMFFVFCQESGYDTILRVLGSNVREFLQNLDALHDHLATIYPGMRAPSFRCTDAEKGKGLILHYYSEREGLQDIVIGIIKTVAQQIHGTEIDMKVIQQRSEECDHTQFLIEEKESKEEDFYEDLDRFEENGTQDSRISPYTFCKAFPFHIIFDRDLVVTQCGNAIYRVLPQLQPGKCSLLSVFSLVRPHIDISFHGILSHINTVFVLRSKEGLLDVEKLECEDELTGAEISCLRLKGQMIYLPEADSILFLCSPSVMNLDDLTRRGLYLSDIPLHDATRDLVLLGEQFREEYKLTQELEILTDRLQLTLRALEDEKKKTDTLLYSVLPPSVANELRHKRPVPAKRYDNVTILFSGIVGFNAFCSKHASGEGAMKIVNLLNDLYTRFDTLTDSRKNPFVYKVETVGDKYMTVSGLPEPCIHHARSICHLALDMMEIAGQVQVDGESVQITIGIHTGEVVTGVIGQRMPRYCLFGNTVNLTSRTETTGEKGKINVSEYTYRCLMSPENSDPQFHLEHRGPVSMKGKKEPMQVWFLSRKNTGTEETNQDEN
Kind of experiment: Effect on a recombinant guanylate cyclase reporter cell line. The note with it: MEC = minimum effective concentration; in some cases means of individual determinations. The class given is cell-based. The method, boiled down: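 Cellular activity measured in a recombinant rat soluble guanylate cyclase reporter cell line. Values are minimum effective concentration (MEC), some given as means of individual determinations.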

Experiment [2] has as its target T2, human phosphodiesterase 5 (PDE 5) (Homo sapiens, UniProt O76074).
T2 construct: PDE 5 preparations are obtained from human platelets by disruption; from tissue; host or cells: human platelets
The experiment can be described thus: Inhibition of human phosphodiesterase 5 (PDE 5). The class given is biochemical. As to conditions: PDE 5 preparation from human platelets; in some cases means of individual determinations. An outline of the steps: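 Enzyme partially purified from human platelets by Mono Q ion exchange, diluted so that under 70% of substrate converts. [8-3H]cGMP at 0.025 μCi per well in Tris pH 7.5 with MgCl2/EDTA, 60 min at room temperature, yttrium SPA bead read-out. Final compound concentrations 4–0.0018 μM; IC50 from concentration–inhibition plot.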

On to `CC1(C)C(=O)Nc2nc(-c3nn(Cc4ccccc4F)c4ncccc34)nc(C(=O)NCc3ccccn3)c21` [Example 117, 2-[1-(2-fluorobenzyl)-1H-pyrazolo[3,4-b]pyridin-3-yl]-5,5-dimethyl-6-oxo-N-(pyridin-2-ylmethyl)-6,7-dihydro-5H-pyrrolo[2,3-d]pyrimidine-4-carboxamide], for which the MEC in experiment [1] is 0.1 µM. Besides, the midpoint of inhibition in experiment [2], the IC50, lay at 25 nM.

Take `CC1(C)C(=O)Nc2nc(-c3nn(Cc4ccccc4F)c4ncccc34)nc(C(=O)NCc3ccncc3)c21` [Example 118, 2-[1-(2-fluorobenzyl)-1H-pyrazolo[3,4-b]pyridin-3-yl]-5,5-dimethyl-6-oxo-N-(pyridin-4-ylmethyl)-6,7-dihydro-5H-pyrrolo[2,3-d]pyrimidine-4-carboxamide]: the MEC in experiment [1] stood at 0.1 µM. In addition, the IC50 (as a rule, the concentration needed to halve the response being measured) in experiment [2] was found to be 21 nM.

As to `Cc1ccncc1NC(=O)c1nc(-c2nn(Cc3ccccc3F)c3ncccc23)nc2c1C(C)(C)C(=O)N2` [Example 119, 2-[1-(2-fluorobenzyl)-1H-pyrazolo[3,4-b]pyridin-3-yl]-5,5-dimethyl-N-(4-methylpyridin-3-yl)-6-oxo-6,7-dihydro-5H-pyrrolo[2,3-d]pyrimidine-4-carboxamide], the MEC in experiment [1] turned out to be 0.3 µM. This molecule returned a concentration for half-maximal inhibition (IC50) in experiment [2] of 10 nM.

`CN(CCO)C(=O)c1nc(-c2nn(Cc3ccccc3F)c3ncccc23)nc2c1C(C)(C)C(=O)N2` [Example 120, 2-[1-(2-fluorobenzyl)-1H-pyrazolo[3,4-b]pyridin-3-yl]-N-(2-hydroxyethyl)-N,5,5-trimethyl-6-oxo-6,7-dihydro-5H-pyrrolo[2,3-d]pyrimidine-4-carboxamide]: in experiment [1], the MEC came out at 0.1 µM. In experiment [2], this molecule returned an IC50 of 220 nM.

In the case of `CCCCNC(=O)c1nc(-c2nn(Cc3ccccc3F)c3ncccc23)nc2c1C(C)(C)C(=O)N2` [Example 121, N-butyl-2-[1-(2-fluorobenzyl)-1H-pyrazolo[3,4-b]pyridin-3-yl]-5,5-dimethyl-6-oxo-6,7-dihydro-5H-pyrrolo[2,3-d]pyrimidine-4-carboxamide], the MEC in experiment [1] came out at 0.3 µM. It took 27 nM to reach half-maximal inhibition in experiment [2] (IC50).

With `CC(C)CNC(=O)c1nc(-c2nn(Cc3ccccc3F)c3ncccc23)nc2c1C(C)(C)C(=O)N2` [Example 122, 2-[1-(2-fluorobenzyl)-1H-pyrazolo[3,4-b]pyridin-3-yl]-5,5-dimethyl-N-(2-methylpropyl)-6-oxo-6,7-dihydro-5H-pyrrolo[2,3-d]pyrimidine-4-carboxamide], the MEC in experiment [1] amounted to 0.1 µM. In experiment [2], the IC50 turned out to be 20 nM.

On to `CCOCCCNC(=O)c1nc(-c2nn(Cc3ccccc3F)c3ncccc23)nc2c1C(C)(C)C(=O)N2` [Example 123, N-(3-ethoxypropyl)-2-[1-(2-fluorobenzyl)-1H-pyrazolo[3,4-b]pyridin-3-yl]-5,5-dimethyl-6-oxo-6,7-dihydro-5H-pyrrolo[2,3-d]pyrimidine-4-carboxamide], for which the MEC in experiment [1] is 0.1 µM. The same molecule had an IC50 in experiment [2] of 26 nM.

Turning to `CC1(C)C(=O)Nc2nc(-c3nn(Cc4ccccc4F)c4ncccc34)nc(C(=O)NC3CCCC3)c21` [Example 126, N-cyclopentyl-2-[1-(2-fluorobenzyl)-1H-pyrazolo[3,4-b]pyridin-3-yl]-5,5-dimethyl-6-oxo-6,7-dihydro-5H-pyrrolo[2,3-d]pyrimidine-4-carboxamide], the MEC in experiment [1] came to 0.3 µM. In addition, the IC50 in experiment [2] stood at 6 nM.

In the case of `COCCNC(=O)c1nc(-c2nn(Cc3ccccc3F)c3ncccc23)nc2c1C(C)(C)C(=O)N2` [Example 127, 2-[1-(2-fluorobenzyl)-1H-pyrazolo[3,4-b]pyridin-3-yl]-N-(2-methoxyethyl)-5,5-dimethyl-6-oxo-6,7-dihydro-5H-pyrrolo[2,3-d]pyrimidine-4-carboxamide], in experiment [1], the MEC stood at 0.1 µM. Further, in experiment [2], half-maximal inhibition (IC50) required 16 nM.

For the molecule `CN(C)CCNC(=O)c1nc(-c2nn(Cc3ccccc3F)c3ncccc23)nc2c1C(C)(C)C(=O)N2` [Example 128, N-[2-(dimethylamino)ethyl]-2-[1-(2-fluorobenzyl)-1H-pyrazolo[3,4-b]pyridin-3-yl]-5,5-dimethyl-6-oxo-6,7-dihydro-5H-pyrrolo[2,3-d]pyrimidine-4-carboxamide], in experiment [1], the MEC was 1 µM. The molecule further yielded an IC50 in experiment [2] of 330 nM.

As for `CCNC(=O)c1nc(-c2nn(Cc3ccccc3F)c3ncccc23)nc2c1C(C)(C)C(=O)N2` [Example 129, N-ethyl-2-[1-(2-fluorobenzyl)-1H-pyrazolo[3,4-b]pyridin-3-yl]-5,5-dimethyl-6-oxo-6,7-dihydro-5H-pyrrolo[2,3-d]pyrimidine-4-carboxamide], the MEC in experiment [1] worked out at 0.1 µM. The IC50 in experiment [2] worked out at 10 nM.

In the case of `CCCCCNC(=O)c1nc(-c2nn(Cc3ccccc3F)c3ncccc23)nc2c1C(C)(C)C(=O)N2` [Example 131, 2-[1-(2-Fluorobenzyl)-1H-pyrazolo[3,4-b]pyridin-3-yl]-5,5-dimethyl-6-oxo-N-pentyl-6,7-dihydro-5H-pyrrolo[2,3-d]pyrimidine-4-carboxamide], the MEC in experiment [1] came to 0.3 µM. The molecule also returned an IC50 in experiment [2] of 38 nM.

For `CC(C)CCNC(=O)c1nc(-c2nn(Cc3ccccc3F)c3ncccc23)nc2c1C(C)(C)C(=O)N2` [Example 132, 2-[1-(2-fluorobenzyl)-1H-pyrazolo[3,4-b]pyridin-3-yl]-5,5-dimethyl-N-(3-methylbutyl)-6-oxo-6,7-dihydro-5H-pyrrolo[2,3-d]pyrimidine-4-carboxamide], in experiment [1], the MEC amounted to 0.3 µM. Besides, in experiment [2], the IC50 was 33 nM.

With `CC[C@H](C)NC(=O)c1nc(-c2nn(Cc3ccccc3F)c3ncccc23)nc2c1C(C)(C)C(=O)N2` [Example 134, N-[(2S)-butan-2-yl]-2-[1-(2-fluorobenzyl)-1H-pyrazolo[3,4-b]pyridin-3-yl]-5,5-dimethyl-6-oxo-6,7-dihydro-5H-pyrrolo[2,3-d]pyrimidine-4-carboxamide], the MEC in experiment [1] turned out to be 0.3 µM. In experiment [2], this molecule yielded an IC50 of 13 nM.

Take `CC1(C)C(=O)Nc2nc(-c3nn(Cc4ccccc4F)c4ncccc34)nc(C(=O)NCC3(O)CC3)c21` [Example 138, 2-[1-(2-fluorobenzyl)-1H-pyrazolo[3,4-b]pyridin-3-yl]-N-[(1-hydroxycyclopropyl)methyl]-5,5-dimethyl-6-oxo-6,7-dihydro-5H-pyrrolo[2,3-d]pyrimidine-4-carboxamide]: in experiment [1], the MEC turned out to be 1 µM. The same molecule yielded an IC50 in experiment [2] of 21 nM.
